Legend:
[1] = 298.15 K; 101.33 kPa; Liquid; Vibrating tube method
[2] = refractive index (Na D-line) (dimensionless); xn = mol fraction of the nth substance listed; settings: 298.15 K, 101 kPa, Liquid, Standard Abbe refractometry
[3] = xn = mol fraction of the nth substance listed; settings: 298.15 K, 101 kPa, Liquid, Vibrating tube method

COc1ccccc1 [anisole]
Settings | mass density [kg/m3]
[1] | 989.42

COc1ccccc1 [anisole] + CO
Settings | mass density, [3] [kg/m3] | refractive index, [2]
x2 = 0.0498 | 985.45 | 1.5105
x2 = 0.1003 | 981.36 | 1.5064
x2 = 0.2003 | 972.63 | 1.4974
x2 = 0.3001 | 962.6 | 1.4865
x2 = 0.4002 | 950.84 | 1.4749
x2 = 0.4997 | 936.67 | 1.4609
x2 = 0.5999 | 919.46 | 1.445
x2 = 0.7001 | 898.19 | 1.4238
x2 = 0.8 | 871.05 | 1.398
x2 = 0.8999 | 835.51 | 1.3658
x2 = 0.95 | 813.27 | 1.3488

COc1ccccc1 [anisole] + COC(=O)OC
Settings | mass density, [3] [kg/m3] | refractive index, [2]
x1 = 0.0502 | 1058.1 | 1.3759
x1 = 0.0997 | 1053.35 | 1.3847
x1 = 0.1995 | 1044.2 | 1.402
x1 = 0.2996 | 1035.64 | 1.4178
x1 = 0.3999 | 1027.62 | 1.4334
x1 = 0.4998 | 1020.13 | 1.4485
x1 = 0.5999 | 1013.15 | 1.4629
x1 = 0.6999 | 1006.64 | 1.4766
x1 = 0.8 | 1000.51 | 1.4898
x1 = 0.9003 | 994.65 | 1.5027
x1 = 0.9503 | 991.82 | 1.5087

COC(=O)OC [dimethyl carbonate]
Settings | mass density [kg/m3]
[1] | 1063.26

COC(=O)OC [dimethyl carbonate] + CO
Settings | mass density, [3] [kg/m3] | refractive index, [2]
x2 = 0.0496 | 1056.77 | 1.3658
x2 = 0.1 | 1049.84 | 1.365
x2 = 0.1997 | 1034.4 | 1.3627
x2 = 0.3 | 1016.89 | 1.3607
x2 = 0.3999 | 997.15 | 1.3578
x2 = 0.5 | 974.61 | 1.3543
x2 = 0.5999 | 948.66 | 1.3506
x2 = 0.6999 | 918.36 | 1.3463
x2 = 0.7999 | 882.55 | 1.341
x2 = 0.9 | 839.54 | 1.3346
x2 = 0.9499 | 814.64 | 1.331

CO [methanol]
Settings | mass density [kg/m3]
[1] | 786.59

Oc1ccccc1 [phenol]
Settings | mass density [kg/m3]
[1] | 1058.51

Reference: the NIST ThermoML archive (doi:10.1016/j.fluid.2014.07.004)
